Test results from patent US7626021B2, “Fused ring heterocycle kinase modulators” (SGX Pharmaceuticals, Inc., priority 2004, dated 2009).

What follows are molecules tested against T1, Abl T315I KD (unphosphorylated c-Abl T315I kinase domain) (Mus musculus, UniProt P00520, T315I) (assay: c-Abl T315I (unphosphorylated kinase domain) enzyme assay, PK/LDH coupled). Conditions: mutant Abl kinase domain at zero phosphorylation state; read-out: Abl_T215l—0P IC50.
T1 construct: purified and unphosphorylated T315I Abl kinase domain; made in house; host or cells: E. coli BL21(DE3)
T1 sequence (P00520 242-493 T315I limits assumed): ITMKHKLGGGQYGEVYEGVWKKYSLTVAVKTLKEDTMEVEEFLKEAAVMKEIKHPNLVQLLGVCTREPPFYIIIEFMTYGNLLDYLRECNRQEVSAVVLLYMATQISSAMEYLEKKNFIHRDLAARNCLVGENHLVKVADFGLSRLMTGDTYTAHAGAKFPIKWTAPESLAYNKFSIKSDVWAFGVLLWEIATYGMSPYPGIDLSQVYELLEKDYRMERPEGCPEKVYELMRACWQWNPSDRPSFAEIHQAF
Format: biochemical
Text: Although the first of these examples uses the kinase domain of a mutant form of Abl T315I (“Abl T315I KD”), the kinase assays may use various forms of mutant and wild type enzymes, including, for example, the entire protein, the kinase domain, or a portion thereof (e.g. Abl Y393F). The kinases used in the assays may also be of varying phosphorylation states. In the c-Abl example, a mutant kinase at a zero phosphorylation state was used.
c-Abl Pyruvate Kinase/Lactate Dehydrogenase Coupled Enzyme Assay
In the c-Abl Pyruvate Kinase (PK)/Lactate Dehydrogenase (LDH) Coupled Assay the protein kinase dependant phosphorylation of a substrate peptide was coupled to the oxidation of NADH. The oxidation of NADH to NAD+ was detected by monitoring a decrease in absorbance at 340 nm.
Materials: Abl substrate peptide=EAIYAAPFAKKK SEQ ID NO:1)-OH (Biopeptide, San Diego, Calif.); βNADH (Sigma Cat#N-8129, FW=709.4); 2M MgCl2; 1M HEPES buffer, pH 7.5; Phosphoenolpyruvate (PEP) (Sigma Cat#P-7002, FW=234); Lactate dehydrogenase (LDH) (Worthington Biochemical Cat#2756); Pyruvate Kinase (PK) (Sigma Cat#P-9136); ATP (Sigma Cat#A-3377, FW=551); Greiner 384-well UV star plate; and purified and unphosphorylated T315I Abl kinase domain.
Stock Solutions: 10 mM NADH (7.09 mg/ml in miliQH2O) made fresh daily; 10 mM Abl substrate peptide (13.4 mg/ml in miliQH2O) stored at −20° C.; 100 mM HEPES buffer, pH 7.5 (5 ml IM stock+45 ml miliQH2O); 100 mM MgCl2 (5 ml 2M MgCl2+95 ml dH2O); 100 mM PEP (23.4 mg/ml in dH2O) stored at −20° C.; 10 mM ATP (5.51 mg/ml in dH2O) stored at −20° C. (diluted 50 μl into total of 10 ml miliQH2O daily=50 μM ATP working stock); 1000 U/ml PK (U/mg varies with lot) flash-frozen under liquid N2 and stored at −80° C.; and 1000 U/ml LDH (U/mg varies with lot) flash-frozen under liquid N2 and stored at −80° C.
Standard Assay Setup for 384-well format (50 μl reaction): 300 μM NADH; 10 mM MgCl2; 2 mM PEP; 45 U/ml PK; 60 U/ml LDH; 200 μM Abl substrate peptide; 2.5 μl test compound (in DMSO); 2 μg/ml Abl kinase domain; 10 μM ATP; 100 mM HEPES buffer. Positive controls contained DMSO with no test compound. Negative controls contained 5 μl of 0.5M EDTA (50 mM in the assay). The dephosphorylated form of the c-Abl T315I mutant was used in the biochemical screening assays. The kinase reaction was initiated at time t=0 by the addition of ATP.
Activity was measured by following the time-dependent loss of NADH by absorbance spectroscopy at 340 nm. The linear portion of the resulting progress curve was then analyzed by linear regression to get the activity in absorbance units/time, reported as the slope of that best fit line (moles/unit time can be calculated from using molar extinction coefficient for NADH at 340 nm, 6250M^−1cm^−1).
Data was evaluated using the equation: Z′=1-[3*(σ++σ−)/|μ+−μ−|] (Zhang, et al., 1999 J Biomol Screening 4(2) 67-73), where […] the mean and σ the standard deviation. The subscript designates positive or negative controls. The Z′ score for a robust screening assay should be 0.50. The typical threshold=μ+−3*σ+. Any value that falls below the threshold was designated a “hit”.
Dose response was analyzed using the equation: y=min+{(max−min)/(1+10^[compound]-logIC50)}, where y is the observed initial slope, max=the slope in the absence of inhibitor, min=the slope at infinite inhibitor, and the IC50 is the [compound] that corresponds to ½ the total observed amplitude (Amplitude=max−min).
To measure modulation, activation, or inhibition of Abl KD, a test compound was added to the assay at a range of concentrations. Inhibitors may inhibit Abl KD activity at an IC50 in the micromolar range, the nanomolar range, or, for example, in the subnanomolar range.

IC50	Structure (SMILES)
< 1000 nM	O=C(c1cccc(-c2cnc3[nH]nc(-c4ccncc4Cl)c3c2)c1)N1CCOCC1
< 1000 nM	COc1ccccc1-c1n[nH]c2ncc(-c3cccc(S(=O)(=O)NC4CC4)c3)cc12
< 1000 nM	COc1ccccc1-c1n[nH]c2ncc(-c3ccc(C(=O)NC4CC4)cc3)cc12
< 1000 nM	c1ccc(-c2n[nH]c3ncc(-c4cccnc4)cc23)cc1
< 1000 nM	COc1ccccc1-c1n[nH]c2ncc(-c3cccc(C(=O)N4CCN(C)CC4)c3)cc12
< 1000 nM	O=C(c1cccc(-c2cnc3[nH]nc(-c4cccc5cccnc45)c3c2)c1)N1CCOCC1
< 1000 nM	CCN1CCN(C(=O)c2cccc(-c3cnc4[nH]nc(-c5cc(F)ccc5OC)c4c3)c2)CC1
< 1000 nM	COc1ccccc1-c1n[nH]c2ncc(-c3ccc(O)c(C(=O)N4CCOCC4)c3)cc12
< 1000 nM	CCc1ccccc1-c1n[nH]c2ncc(-c3cccc(C(=O)N4CCOCC4)c3)cc12
< 1000 nM	COc1ccccc1-c1n[nH]c2ncc(-c3ccc(C(=O)N4CCOCC4)cc3)cc12
< 1000 nM	Oc1cccc(-c2cnc3[nH]nc(-c4ccccc4)c3c2)c1
< 1000 nM	COc1cc(-c2cnc3[nH]cc(-c4ccc(C)cc4)c3n2)ccc1O
< 1000 nM	COc1ccccc1-c1n[nH]c2ncc(Br)cc12
< 1000 nM	COc1ccccc1-c1n[nH]c2ncc(-c3cccc(C(=O)N4CCCC4)c3)cc12
< 1000 nM	COc1ccccc1-c1n[nH]c2ncc(-c3cccc(C(=O)N4CCN(CCN(C)C)CC4)c3)cc12
< 1000 nM	COc1ccccc1-c1n[nH]c2ncc(-c3ccc(C(=O)N4CCCCC4)cc3)cc12
< 1000 nM	CCOc1ccccc1-c1n[nH]c2ncc(-c3cccc(C(=O)N4CCOCC4)c3)cc12

IC50	Structure (SMILES)
< 1000 nM	COc1ccccc1-c1n[nH]c2ncc(-c3ccc(C(=O)N4CCCC4)cc3)cc12
< 1000 nM	COc1cc(-c2cnc3[nH]nc(-c4ccccc4)c3c2)ccc1O
< 1000 nM	COc1ccccc1-c1n[nH]c2ncc(-c3cccc(C(=O)N4CCC(CO)CC4)c3)cc12
< 1000 nM	COc1c(F)cccc1-c1n[nH]c2ncc(-c3cccc(C(=O)N4CCOCC4)c3)cc12
< 1000 nM	Cc1cc(F)ccc1-c1n[nH]c2ncc(-c3cccc(C(=O)N4CCOCC4)c3)cc12
< 1000 nM	COc1ccccc1-c1n[nH]c2ncc(-c3cccc(C(=O)N(C)C)c3)cc12
< 1000 nM	COc1ccccc1-c1n[nH]c2ncc(-c3ccc(C(=O)N4CCN(C)CC4)cc3)cc12
< 1000 nM	c1ccc(-c2n[nH]c3ncc(-c4ccc5[nH]ccc5c4)cc23)cc1
< 1000 nM	COc1ccccc1-c1n[nH]c2ncc(-c3cccc(C(=O)NC(C)C)c3)cc12
< 1000 nM	COc1ccccc1-c1n[nH]c2ncc(-c3cccnc3)cc12
< 1000 nM	COc1ccccc1-c1n[nH]c2ncc(-c3cnc4[nH]n(C)c(=O)c4c3)cc12
< 1000 nM	Cn1ccc2cc(-c3n[nH]c4ncc(-c5cccc(C(=O)N6CCOCC6)c5)cc34)ccc21
< 1000 nM	COc1ccccc1-c1cnc2[nH]nc(-c3ccccc3OC)c2c1
< 1000 nM	COc1ncc(-c2n[nH]c3ncc(-c4cccc(C(=O)N5CCOCC5)c4)cc23)c(OC)n1
< 1000 nM	Cc1ccsc1-c1n[nH]c2ncc(-c3cccc(C(=O)N4CCOCC4)c3)cc12
< 1000 nM	O=C(c1cccc(-c2cnc3[nH]nc(-c4ccc5cc[nH]c5c4)c3c2)c1)N1CCOCC1
< 1000 nM	COc1ccccc1-c1c[nH]c2ncc(-c3cccc(C(=O)N(C)C)c3)nc12
